This note sets out measurements from US11746100B2 (GLOBAL BLOOD THERAPEUTICS, INC., priority 2020, dated 2023).

The structures appear in SMILES notation.

This experiment concerns the target T1, human ferroportin (Homo sapiens, UniProt Q9NP59).
T1 construct: luciferase reporter (read with the Nano-Glo Luciferase Assay System); expressed in transfected cells; host or cells: CHO cells, stably transfected, expression induced with doxycycline
T1 sequence (Q9NP59 1-571): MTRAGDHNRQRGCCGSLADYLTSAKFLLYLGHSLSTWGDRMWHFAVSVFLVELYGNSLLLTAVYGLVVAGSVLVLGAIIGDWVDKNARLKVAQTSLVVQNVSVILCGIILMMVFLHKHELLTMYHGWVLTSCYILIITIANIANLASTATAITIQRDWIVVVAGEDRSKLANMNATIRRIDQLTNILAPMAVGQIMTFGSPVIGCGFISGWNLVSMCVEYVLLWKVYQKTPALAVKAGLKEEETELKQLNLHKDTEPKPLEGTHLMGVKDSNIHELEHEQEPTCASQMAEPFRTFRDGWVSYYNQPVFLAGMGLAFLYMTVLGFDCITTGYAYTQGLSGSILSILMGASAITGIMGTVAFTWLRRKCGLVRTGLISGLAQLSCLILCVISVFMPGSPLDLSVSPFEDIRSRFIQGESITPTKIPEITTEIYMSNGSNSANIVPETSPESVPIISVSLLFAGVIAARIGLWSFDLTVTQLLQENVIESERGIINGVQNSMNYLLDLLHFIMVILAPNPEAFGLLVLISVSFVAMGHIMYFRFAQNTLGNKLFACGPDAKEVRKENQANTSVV
Put plainly: Biological in-vitro ferroportin internalization assay (luciferase reporter). In kind it is cell-based. Conditions: average pEC50; stably-transfected CHO cell line expressing human ferroportin tagged to a luciferase reporter; 6 h incubation with test compound. Summed up: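 Read-out is Nano-Glo luciferase signal after 6 h compound exposure, with average pEC50 derived. Cells are a stable CHO line carrying luciferase-tagged human ferroportin, pre-loaded 24 h with ferric ammonium citrate and doxycycline-induced for 24 h.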

Compound `CCOc1ccnc(-c2nc3c(c(N(C)CC(=O)NC(C)(C)C)n2)CCC3)c1` [Compound 467, N-tert-butyl-2-{[2-(4-ethoxypyridin-2-yl)-5H,6H,7H-cyclopenta[d]pyrimidin-4-yl](methyl)amino}acetamide] came in with a pEC50 of 8.3.
For `CN(CC(=O)NC(C)(C)C)c1nc(-c2cc(OCCOc3cccnn3)ccn2)nc2c1CCC2` [Compound 468, N-tert-butyl-2-[methyl(2-{4-[2-(pyridazin-3-yloxy)ethoxy]pyridin-2-yl}-5H,6H,7H-cyclopenta[d]pyrimidin-4-yl)amino]acetamide], the pEC50 came to 8.5.
As to `CCC(O)(CC)COc1ccnc(-c2nc3c(c(N(C)CC(=O)N[C@@H]4CCC[C@@H]4O)n2)CCC3)c1` [Compound 469, 2-({2-[4-(2-ethyl-2-hydroxybutoxy)pyridin-2-yl]-5H,6H,7H-cyclopenta[d]pyrimidin-4-yl}(methyl)amino)-N-[(1R,2S)-2-hydroxycyclopentyl]acetamidede], the pEC50 was determined as 8.3.
Compound `CN(C)CCOc1ccnc(-c2nc3c(c(N(CC(=O)NC(C)(C)C)CC(F)(F)F)n2)CCC3)c1` [Compound 470, N-tert-butyl-2-[(2-{4-[2-(dimethylamino)ethoxy]pyridin-2-yl}-5H,6H,7H-cyclopenta[d]pyrimidin-4-yl)(2,2,2-trifluoroethyl)amino]acetamide] came in with a pEC50 of 7.2.
`COc1ccnc(-c2nc3c(c(N(C)CC(=O)N4CC[C@@H](O)C4)n2)CCC3)c1` [Compound 471, 1-[(3R)-3-hydroxypyrrolidin-1-yl]-2-{[2-(4-methoxypyridin-2-yl)-5H,6H,7H-cyclopenta[d]pyrimidin-4-yl](methyl)amino}ethan-1-one] showed a negative-log EC50 (pEC50) of 7.4.
The compound `COc1ccnc(-c2nc3c(c(N(C)CC(=O)N4CC[C@H](O)C4)n2)CCC3)c1` [Compound 472, 1-[(3S)-3-hydroxypyrrolidin-1-yl]-2-{[2-(4-methoxypyridin-2-yl)-5H,6H,7H-cyclopenta[d]pyrimidin-4-yl](methyl)amino}ethan-1-one] came in with a pEC50 of 7.4.
Consider `CN(CC(=O)NC(C)(C)C)c1nc(-c2cc(OCCN3CC[C@@H](F)C3)ccn2)nc2c1CCC2` [Compound 473, N-tert-butyl-2-{[2-(4-{2-[(3R)-3-fluoropyrrolidin-1-yl]ethoxy}pyridin-2-yl)-5H,6H,7H-cyclopenta[d]pyrimidin-4-yl](methyl)amino}acetamide], for which the negative-log EC50 (pEC50) is recorded as 8.3.
`CN(CC(=O)NC(C)(C)C)c1nc(-c2cc(OCCN3CC[C@H](F)C3)ccn2)nc2c1CCC2` [Compound 474, N-tert-butyl-2-{[2-(4-{2-[(3S)-3-fluoropyrrolidin-1-yl]ethoxy}pyridin-2-yl)-5H,6H,7H-cyclopenta[d]pyrimidin-4-yl](methyl)amino}acetamide] yielded a pEC50 of 8.3.
With `CN(C)CCCc1ccnc(-c2nc3c(c(N(C)CC(=O)NC(C)(C)C)n2)CCC3)c1` [Compound 475, N-tert-butyl-2-[(2-{4-[3-(dimethylamino)propyl]pyridin-2-yl}-5H,6H,7H-cyclopenta[d]pyrimidin-4-yl)(methyl)amino]acetamide] the figure was 7.6; with `COc1ccnc(-c2nc3c(c(N(C)CC(=O)NCCN(C)C)n2)CCC3)c1` [Compound 476, N-[2-(dimethylamino)ethyl]-2-{[2-(4-methoxypyridin-2-yl)-5H,6H,7H-cyclopenta[d]pyrimidin-4-yl](methyl)amino}acetamide], 6.7.
`COc1ccnc(-c2nc3c(c(N(C)CC(=O)N4CCOCC4)n2)CCC3)c1` [Compound 477, 2-{[2-(4-methoxypyridin-2-yl)-5H,6H,7H-cyclopenta[d]pyrimidin-4-yl](methyl)amino}-1-(morpholin-4-yl)ethan-1-one] returned a pEC50 of 6.9.
The compound `CN(C)CCOc1ccnc(-c2nc3c(c(N(C)CC(=O)NCC(F)(F)F)n2)CCC3)c1` [Compound 478, 2-[(2-{4-[2-(dimethylamino)ethoxy]pyridin-2-yl}-5H,6H,7H-cyclopenta[d]pyrimidin-4-yl)(methyl)amino]-N-(2,2,2-trifluoroethyl)acetamide] registered a pEC50 of 7.6.
Compound `CN(CC(=O)NCC(F)(F)F)c1nc(-c2cc(OCC(C)(C)O)ccn2)nc2c1CCC2` [Compound 479, 2-({2-[4-(2-hydroxy-2-methylpropoxy)pyridin-2-yl]-5H,6H,7H-cyclopenta[d]pyrimidin-4-yl}(methyl)amino)-N-(2,2,2-trifluoroethyl)acetamide] had a negative logarithm of the EC50 (pEC50) of 7.9.
With `CNCCCc1ccnc(-c2nc3c(c(N(C)CC(=O)NC(C)(C)C)n2)CCC3)c1` [Compound 480, N-tert-butyl-2-[methyl(2-{4-[3-(methylamino)propyl]pyridin-2-yl}-5H,6H,7H-cyclopenta[d]pyrimidin-4-yl)amino]acetamide] the figure was 7.3; with `CN(CC(=O)NC(C)(C)C)c1nc(-c2cc(CCC(C)(C)O)ccn2)nc2c1CCC2` [Compound 481, N-tert-butyl-2-({2-[4-(3-hydroxy-3-methylbutyl)pyridin-2-yl]-5H,6H,7H-cyclopenta[d]pyrimidin-4-yl}(methyl)amino)acetamide], 7.7.
As to `CN(CC(=O)NC(C)(C)C)c1nc(-c2cc(O)ccn2)nc2c1CCC2` [Compound 482, N-tert-butyl-2-{[2-(4-hydroxypyridin-2-yl)-5H,6H,7H-cyclopenta[d]pyrimidin-4-yl](methyl)amino}acetamide], the pEC50 is recorded as 6.1.
As to `CN(CC(=O)NC(C)(C)C)c1nc(-c2cc(OCCN)ccn2)nc2c1CCC2` [Compound 483, 2-({2-[4-(2-aminoethoxy)pyridin-2-yl]-5H,6H,7H-cyclopenta[d]pyrimidin-4-yl}(methyl)amino)-N-tert-butylacetamide], the pEC50 amounted to 7.2.
As to `CN(C)CCOc1ccnc(-c2nc3c(c(NCC(=O)NC(C)(C)C)n2)CCC3)c1` [Compound 484, N-tert-butyl-2-[(2-{4-[2-(dimethylamino)ethoxy]pyridin-2-yl}-5H,6H,7H-cyclopenta[d]pyrimidin-4-yl)amino]acetamide], the pEC50 was 7.
For `CNCCOc1ccnc(-c2nc3c(c(NCC(=O)NC(C)(C)C)n2)CCC3)c1` [Compound 485, N-tert-butyl-2-[(2-{4-[2-(methylamino)ethoxy]pyridin-2-yl}-5H,6H,7H-cyclopenta[d]pyrimidin-4-yl)amino]acetamide], the pEC50 is listed as 7.1.
Turning to `C[C@H](CN(C)C)Oc1ccnc(-c2nc3c(c(N(C)CC(=O)NC4(C(F)(F)F)CC4)n2)CCC3)c1` [Compound 486, 2-{[2-(4-{[(2R)-1-(dimethylamino)propan-2-yl]oxy}pyridin-2-yl)-5H,6H,7H-cyclopenta[d]pyrimidin-4-yl](methyl)amino}-N-[1-(trifluoromethyl)cyclopropyl]acetamide], the negative-log EC50 (pEC50) is given as 7.4.
As to `CN1CC[C@@H](Oc2ccnc(-c3nc4c(c(N(C)CC(=O)NC5(C(F)(F)F)CC5)n3)CCC4)c2)C1` [Compound 487, 2-{methyl[2-(4-{[(3R)-1-methylpyrrolidin-3-yl]oxy}pyridin-2-yl)-5H,6H,7H-cyclopenta[d]pyrimidin-4-yl]amino}-N-[1-(trifluoromethyl)cyclopropyl]acetamide], the negative logarithm of the EC50 (pEC50) is 7.5. The pEC50 values of the last two compounds are within 0.2 log units of each other.
The same measure for `C[C@@H]1C[C@@H](Oc2ccnc(-c3nc4c(c(N(C)CC(=O)NC(C)(C)C)n3)CCC4)c2)CN1C` [Compound 488, N-tert-butyl-2-{[2-(4-{[(3R,5R)-1,5-dimethylpyrrolidin-3-yl]oxy}pyridin-2-yl)-5H,6H,7H-cyclopenta[d]pyrimidin-4-yl](methyl)amino}acetamide]: 7.8; for `CN1CCC[C@@H](Oc2ccnc(-c3nc4c(c(N(C)CC(=O)NC(C)(C)C)n3)CCC4)c2)C1` [Compound 489, N-tert-butyl-2-{methyl[2-(4-{[(3R)-1-methylpiperidin-3-yl]oxy}pyridin-2-yl)-5H,6H,7H-cyclopenta[d]pyrimidin-4-yl]amino}acetamide]: 8.2.
Turning to `CN1CCC[C@H](Oc2ccnc(-c3nc4c(c(N(C)CC(=O)NC(C)(C)C)n3)CCC4)c2)C1` [Compound 490, N-tert-butyl-2-{methyl[2-(4-{[(3S)-1-methylpiperidin-3-yl]oxy}pyridin-2-yl)-5H,6H,7H-cyclopenta[d]pyrimidin-4-yl]amino}acetamide], the negative-log EC50 (pEC50) is given as 7.9.
Regarding `CN(CC(=O)NC(C)(C)C)c1nc(-c2cc(O[C@@H]3CCN(CC(F)F)C3)ccn2)nc2c1CCC2` [Compound 491, N-tert-butyl-2-{[2-(4-{[(3R)-1-(2,2-difluoroethyl)pyrrolidin-3-yl]oxy}pyridin-2-yl)-5H,6H,7H-cyclopenta[d]pyrimidin-4-yl](methyl)amino}acetamide], the pEC50 was found to be 8.2.
The compound `CN(CC(=O)NC(C)(C)C)c1nc(-c2cc(OCC(C)(C)O)ccn2)nc2c1C(=O)CC2` [Compound 492, N-tert-butyl-2-({2-[4-(2-hydroxy-2-methylpropoxy)pyridin-2-yl]-5-oxo-5H,6H,7H-cyclopenta[d]pyrimidin-4-yl}(methyl)amino)acetamide] registered a negative-log EC50 (pEC50) of 6.6.
